Legend:
[1] = tested on: animal model in which lung disease was induced with bleomycin; assay: Bleomycin-induced lung disease model, lung histology; type: in vivo, C57BL/6J mice; details: day 22; peptides 30 mg/kg subcutaneously three times a week, nintedanib 100 mg/kg orally daily; peptides compared to NT group and nintedanib group; FIG. 8c
Procedure: C57BL/6J mice (male, 7 weeks old) were purchased from Charles River. Mice were anesthetized by intraperitoneal administration of a mixture of Imalgene (ketamine, 100 mg/kg)/Rompun (xylazine, 20 mg/kg), and a total of 50 µl of bleomycin sulfate (1.45 mg/kg, MBcell, CA, USA) was injected intratracheally once, and saline was injected intratracheally in the normal group (day 0). On day 7, mice were divided into groups, each consisting of eight. PBS (NT), SEQ ID NO: 1 (30 mg/kg), and SEQ ID NO: 2 (30 mg/kg) were administered subcutaneously three times a week, and nintedanib (Fluorochem Ref = 050741, 100 mg/kg) was administered orally daily. Each of the peptides of SEQ ID NO: 1 and SEQ ID NO: 2 was administered after dissolution in water for injection, and nintedanib was administered after mixing with water containing 0.5% hydroxyethylcellulose (Sigma; lot BCBV5033) and 0.01% Tween 80 (Sigma; lot BCBR6211V). While administering the drug for 21 days, body weight was measured every 2 days, and whether there were other clinical symptoms were checked.
After mice were sacrificed with isoflurane on day 22, lung tissue was excised therefrom and histological analysis was performed. […]
In order to quantify the fibrotic change, the area of the red (fibrotic portion) was quantified in the sample stained with Sirius Red.

[2] = type: in vivo, C57BL/6J mice; details: bleomycin mice, treatment from day 7, day 0 to day 22; peptides 30 mg/kg subcutaneously three times a week, nintedanib 100 mg/kg orally daily; FIG. 8b
Source text: Based on results of measuring the change in body weight from day 0 to day 22, the body weight decreased until day 7 after administration of bleomycin, but increased after treatment with the peptide according to the present invention and nintedanib (FIG. 8b), and weight loss due to toxicity of the peptide according to the present invention and nintedanib was not observed.

## COC(=O)c1ccc2c(c1)NC(=O)/C2=C(\Nc1ccc(N(C)C(=O)CN2CCN(C)CC2)cc1)c1ccccc1 [nintedanib]
[1]
  fibrous deposition in the lungs (Sirius Red and hematoxylin/phloxine staining, microscopy): some therapeutic effect, but a lot of deposited fibrous tissue was still observed
[2]
  change in body weight: increased

— EP4813464A2, “PEPTIDE FOR PREVENTING AND TREATING FIBROSIS” (priority 2021, dated 2022)
